Measured values reported in ChEMBL document CHEMBL5726747, “Substituted pyrido[3,4-d]pyrimidines and pyrido[4,3-d]pyrimidines as p70S6K inhibitors” (2019).

Experiments:
[1] = target: Ribosomal protein S6 kinase beta-1 (Homo sapiens, UniProt P23443, T412E); assay: p70S6K Enzyme Assay: p70S6K inhibitor compounds were diluted and plated in 96 well plates. A reaction mixture including the following components were then added to the compound plate to initiate the enzyme reaction: p70S6K (3 nM, T412E mutant, Millipore) was mixed with 24 μM ATP in an assay buffer containing 100 mM Hepes (pH 7.5), 5 mM MgCl2, 1 mM DTT, 0.015% Brij and 1 μM of the substrate peptide FITC-AHA-[…]-OH (derived from the S6 ribosomal protein sequence, FITC=fluorescein isothiocyanate, AHA=6-aminohexanoic acid). The reaction was incubated for 90 min at 25° C., before the addition of 10 mM EDTA to stop the reaction. The proportion of substrate and product (phosphorylated) peptide was analyzed on a Caliper Life Sciences Lab Chip 3000, using a pressure of −1.4 psi, and upstream and downstream voltages of −3000 and −700, respectively. Product peaks were resolved before substrate peaks on the resulting chromatograms. To assess the inhibitory potential of the compounds, IC50 values were determined, as shown above.
[2] = target: RAC-alpha serine/threonine-protein kinase (Homo sapiens, UniProt P31749); assay: AKT/PKB Kinase Assay: In order to measure AKT inhibition in the Caliper Life Sciences LC3000, a TTP Mosquito liquid handling instrument was used to place 125 nl of the appropriate concentration of inhibitor in 100% DMSO (for a dose response curve calculation) into each well of a 384-well plate. To this reaction, the following components were added to a final volume of 12.5 μl: 0.1 ng/μl His-AKT (Full Length) (Invitrogen, Part # P2999, Lot #641228C); 160 μM ATP (Fluka, 02055); 1 mM DTT (Sigma, D0632); 1 mM MgCl2 (Sigma, M1028); 1 μM substrate peptide (sequence FITC-AHA-[…]-NH2), synthesized by Tufts Peptide Synthesis service; 100 mM HEPES pH 7.5 (Calbiochem, 391338); and 0.015% Brij-35 (Sigma, B4184).The reaction was incubated for 90 min at 25° C., and then stopped by the addition of 70 μl of Stop buffer (100 mM HEPES pH 7.5, 0.015% Brij-35, 10 mM EDTA (Sigma, E7889)). The plate was read on a Caliper LC 3000 in an Off-Chip mobility shift assay format, using the following parameters for a 12-sipper chip: screening pressure −2.3 psi, upstream voltage −500, and downstream voltage −3000. These conditions cause unphosphorylated substrate and phosphorylated product peptide to resolve as separate peaks allowing direct measurement of percentage of conversion of substrate to product. The percent conversion was plotted against concentration of inhibitor to produce a sigmoidal dose response curve, from which an IC50 was calculated.
RAC-alpha serine/threonine-protein kinase, sequence (P31749 whole entry): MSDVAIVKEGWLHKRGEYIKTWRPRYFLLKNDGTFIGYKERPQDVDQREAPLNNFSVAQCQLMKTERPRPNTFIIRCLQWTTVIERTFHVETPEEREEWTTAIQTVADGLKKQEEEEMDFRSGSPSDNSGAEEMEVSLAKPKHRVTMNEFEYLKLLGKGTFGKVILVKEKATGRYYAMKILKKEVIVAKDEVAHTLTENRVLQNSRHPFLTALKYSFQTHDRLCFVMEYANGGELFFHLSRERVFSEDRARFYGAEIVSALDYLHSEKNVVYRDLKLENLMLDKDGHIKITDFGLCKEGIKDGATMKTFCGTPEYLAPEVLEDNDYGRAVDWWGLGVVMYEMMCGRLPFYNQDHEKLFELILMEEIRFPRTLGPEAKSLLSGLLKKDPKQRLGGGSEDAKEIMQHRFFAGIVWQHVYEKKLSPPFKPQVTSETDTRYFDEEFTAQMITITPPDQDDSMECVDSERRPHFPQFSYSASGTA

Ribosomal protein S6 kinase beta-1, sequence (P23443 whole entry T412E): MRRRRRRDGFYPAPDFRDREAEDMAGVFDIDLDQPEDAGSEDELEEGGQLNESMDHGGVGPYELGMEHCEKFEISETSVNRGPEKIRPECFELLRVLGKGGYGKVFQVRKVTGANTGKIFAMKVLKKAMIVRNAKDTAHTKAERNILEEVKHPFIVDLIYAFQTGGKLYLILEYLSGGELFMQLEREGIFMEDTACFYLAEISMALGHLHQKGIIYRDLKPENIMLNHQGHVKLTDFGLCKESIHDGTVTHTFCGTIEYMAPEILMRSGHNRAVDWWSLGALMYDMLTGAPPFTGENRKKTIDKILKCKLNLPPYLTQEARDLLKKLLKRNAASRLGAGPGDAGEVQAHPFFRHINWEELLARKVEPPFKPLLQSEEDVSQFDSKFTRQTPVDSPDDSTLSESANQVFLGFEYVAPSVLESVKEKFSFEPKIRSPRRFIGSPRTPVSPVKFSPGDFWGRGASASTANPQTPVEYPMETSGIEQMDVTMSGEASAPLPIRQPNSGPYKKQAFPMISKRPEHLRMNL

| SMILES | IC50 [1] [nM] | IC50 [2] [nM] |
| --- | --- | --- |
| CCNC[C@@H](Nc1ncnc2c(C(N)=O)ccnc12)c1ccc(F)c(Cl)c1 | < 25 | – |
| CCNC[C@@H](Nc1ncnc2c(C(N)=O)ccnc12)c1ccc(F)c(Br)c1 | < 25 | – |
| N#Cc1ccc([C@@H](CN2CCC2)Nc2ncnc3c(C(N)=O)ccnc23)cc1Cl | < 25 | < 25 |

Other lines, results leading:

| IC50 [1] [nM] | IC50 [2] [nM] | SMILES |
| --- | --- | --- |
| < 25 | < 25 | CNC[C@@H](Nc1ncnc2c(C(N)=O)ccnc12)c1ccc(F)c(Cl)c1 |
| < 25 | < 25 | NC(=O)c1ccnc2c(N[C@H](CN3CCC3)c3ccc(F)c(C(F)F)c3)ncnc12 |
| < 25 | – | CN(C)C[C@@H](Nc1ncnc2c(C(N)=O)ccnc12)c1ccc(Cl)c(F)c1 |
| < 25 | < 25 | NC(=O)c1ccnc2c(N[C@H](CN3CCC3)c3ccc(F)c(C(F)(F)F)c3)ncnc12 |
